Test results as given in patent US20260035364A1, “BICYCLIC TETRAHYDROTHIAZEPINE DERIVATIVES” (Hoffmann-La Roche Inc., priority 2022, published 2026).

Legend:
primary human T-cells = experiment: IL2 secretion measurements in CD3-stimulated T-cells; assay type: cell-based; conditions: Homo sapiens, T-cell, 24 h, CD3 condition; for Emax: IL2 after 24 hours, 20 μM reference compound A1 = 100%, read-out: Emax IL2 (% activation); for EC50: IL2 secretion after 24 hours, read-out: Tcell IL2 CD3 EC50
Method in brief: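 Expanded primary human T-cells (100k/well) were stimulated on CD3 antibody-coated or PBS-coated plates with compounds in 5–6 point dose response from 20 or 10 μM top final (dilution factor 3.333, 0.2% DMSO final). IL2 in 24 h supernatants was measured by ProQuantum immunoassay or ELISA, normalized to DMSO (0%) and 20 μM reference compound A1 (100%) to fit EC50 and Emax.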

DGKzeta = DGKzeta (Homo sapiens, UniProt Q13574); experiment: In vitro DGK inhibition assay (ADP-Glo, liposomes), DGKzeta; assay type: biochemical; design: hDGKzeta(1-928)-N-His; His (N); made in house; host or cells: Sf21 insect cells (baculovirus); conditions: 2 nM DGK ζ, 50 μM ATP, 125 uM DLG in liposomes, 1 hour reaction
Sequence of DGKzeta (Q13574 whole entry): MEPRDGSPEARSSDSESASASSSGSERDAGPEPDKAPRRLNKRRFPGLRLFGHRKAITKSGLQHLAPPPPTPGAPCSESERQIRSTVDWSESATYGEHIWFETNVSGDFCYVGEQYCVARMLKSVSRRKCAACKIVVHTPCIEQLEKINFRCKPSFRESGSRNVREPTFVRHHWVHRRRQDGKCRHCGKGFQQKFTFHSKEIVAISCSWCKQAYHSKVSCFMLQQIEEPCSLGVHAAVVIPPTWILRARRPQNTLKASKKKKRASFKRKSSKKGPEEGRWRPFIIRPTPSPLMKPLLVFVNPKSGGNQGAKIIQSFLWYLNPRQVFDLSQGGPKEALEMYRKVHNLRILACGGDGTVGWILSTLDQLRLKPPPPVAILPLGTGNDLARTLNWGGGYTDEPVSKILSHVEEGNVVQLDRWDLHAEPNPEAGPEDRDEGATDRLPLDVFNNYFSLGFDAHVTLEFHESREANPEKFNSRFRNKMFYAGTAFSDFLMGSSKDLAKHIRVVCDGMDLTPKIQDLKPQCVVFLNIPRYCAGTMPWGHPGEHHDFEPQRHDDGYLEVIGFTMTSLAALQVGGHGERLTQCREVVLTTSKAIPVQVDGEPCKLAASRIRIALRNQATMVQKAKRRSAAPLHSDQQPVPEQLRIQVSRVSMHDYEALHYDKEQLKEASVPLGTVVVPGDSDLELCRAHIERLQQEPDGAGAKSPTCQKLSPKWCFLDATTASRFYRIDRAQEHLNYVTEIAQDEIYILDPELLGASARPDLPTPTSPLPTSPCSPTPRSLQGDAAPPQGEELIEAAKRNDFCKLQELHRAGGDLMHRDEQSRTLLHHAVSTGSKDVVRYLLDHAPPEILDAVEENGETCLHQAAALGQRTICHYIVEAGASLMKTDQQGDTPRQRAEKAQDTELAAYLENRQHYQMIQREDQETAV
Method in brief: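 DGKζ (2 nM) phosphorylated DLG presented in DLG/PS/PC liposomes (final DLG 125 μM) with 50 μM ATP for 1 hour. ADP formed was read by ADP-Glo luminescence. Compounds were tested as 11-point 1:3 dose responses in 2% final DMSO.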

Compound	EC50 (primary human T-cells) [nM]	IC50 (DGKzeta) [nM]	Emax (primary human T-cells) [%]
CC(C)(c1nnc(-c2cc3c(cc2F)S(=O)(=O)C[C@H](N)C(=O)N3Cc2ccc(Cl)cc2)o1)S(C)(=O)=O [Example 2, (3R)-3-amino-5-[(4-chlorophenyl)methyl]-8-fluoro-7-[5-(1-methyl-1-methylsulfonyl-ethyl)-1,3,4-oxadiazol-2-yl]-1,1-dioxo-2,3-dihydro-1λ6,5-benzothiazepin-4-one]	328	1380	94
CC(C)(c1nnc(-c2ccc3c(c2)N(Cc2ccc(-c4ccc(C#N)cc4)cc2)C(=O)[C@@H](N)CS3(=O)=O)o1)S(C)(=O)=O [Example 20, 4-[4-[[(3R)-3-amino-7-[5-(1-methyl-1-methylsulfonyl-ethyl)-1,3,4-oxadiazol-2-yl]-1,1,4-trioxo-2,3-dihydro-1λ6,5-benzothiazepin-5-yl]methyl]phenyl]benzonitrile]	5000	1450	77
CS(=O)(=O)Cn1nnc(-c2cc3c(cc2F)S(=O)(=O)C[C@H](N)C(=O)N3Cc2ccc(Oc3ccccc3)cc2)n1 [Example 54, (3R)-3-amino-8-fluoro-7-[2-(methylsulfonylmethyl)tetrazol-5-yl]-1,1-dioxo-5-[(4-phenoxyphenyl)methyl]-2,3-dihydro-1λ6,5-benzothiazepin-4-one]	1040	603	132

The next lines start with results.

EC50 (primary human T-cells) [nM]	IC50 (DGKzeta) [nM]	Compound	Emax (primary human T-cells) [%]
485	309	CC(C)(c1nc(-c2cc3c(cc2F)S(=O)(=O)C[C@H](N)C(=O)N3Cc2ccc(Oc3ccccc3)cc2)no1)S(C)(=O)=O [Example 30, (3R)-3-amino-8-fluoro-7-[5-(1-methyl-1-methylsulfonyl-ethyl)-1,2,4-oxadiazol-3-yl]-1,1-dioxo-5-[(4-phenoxyphenyl)methyl]-2,3-dihydro-1λ6,5-benzothiazepin-4-one]	265
1000	1100	CC(C)(c1nnc(-c2ccc3c(c2)N(Cc2ccc(Oc4cccc(Cl)c4)cc2)C(=O)[C@@H](N)CS3(=O)=O)o1)S(C)(=O)=O [Example 34, (3R)-3-amino-5-[[4-(3-chlorophenoxy)phenyl]methyl]-7-[5-(1-methyl-1-methylsulfonyl-ethyl)-1,3,4-oxadiazol-2-yl]-1,1-dioxo-2,3-dihydro-1λ6,5-benzothiazepin-4-one]	89
195	98	CC(C)(c1nc(-c2cc3c(cc2F)S(=O)(=O)C[C@H](N)C(=O)N3Cc2ccc(-c3noc(C4CC4)n3)cc2)no1)S(C)(=O)=O [Example 45, (3R)-3-amino-5-[[4-(5-cyclopropyl-1,2,4-oxadiazol-3-yl)phenyl]methyl]-8-fluoro-7-[5-(1-methyl-1-methylsulfonyl-ethyl)-1,2,4-oxadiazol-3-yl]-1,1-dioxo-2,3-dihydro-1λ6,5-benzothiazepin-4-one]	190
1050	630	CC(C)(c1nc(-c2cc3c(cc2F)S(=O)(=O)C[C@H](N)C(=O)N3Cc2ccc(Oc3ccccc3)nc2)no1)S(C)(=O)=O [Example 48, (3R)-3-amino-8-fluoro-7-[5-(1-methyl-1l-methylsulfonyl-ethyl)-1,2,4-oxadiazol-3-yl]-1,1-dioxo-5-[(6-phenoxy-3-pyridyl)methyl]-2,3-dihydro-1 λ6,5-benzothiazepin-4-one]	165
2660	2050	CC(C)(c1nnc(-c2ccc3c(c2)N(Cc2ccc(OCC(F)(F)F)cc2)C(=O)[C@@H](N)CS3(=O)=O)o1)S(C)(=O)=O [Example 6, (3R)-3-amino-7-[5-(1-methyl-1-methylsulfonyl-ethyl)-1,3,4-oxadiazol-2-yl]-1,1-dioxo-5-[[4-(2,2,2-trifluoroethoxy)phenyl]methyl]-2,3-dihydro-1λ6,5-benzothiazepin-4-one]	54
